Earlier results as cited in patent US20250066562A1, “METHOD AND MATERIAL FOR DIFFERENTIATED SEQUESTRATION OF SUBSTANCES OF DIFFERENT SUBSTANCE GROUPS WITH THE AID OF HYDROGELS CONTAINING SULPHATED OR SULPHONATED COMPONENTS” (LEIBNIZ-INSTITUT FÜR POLYMERFORSCHUNG E.V., priority 2017, published 2025).

Legend:
[1] = target: thrombin (Homo sapiens, UniProt P00734); settings: according to Freudenberg et al., J. Controlled Release 220 (2015) 79-88
[2] = target: antithrombin (Homo sapiens, UniProt P01008); settings: according to Freudenberg et al., J. Controlled Release 220 (2015) 79-88
antithrombin, sequence (P01008 33-464): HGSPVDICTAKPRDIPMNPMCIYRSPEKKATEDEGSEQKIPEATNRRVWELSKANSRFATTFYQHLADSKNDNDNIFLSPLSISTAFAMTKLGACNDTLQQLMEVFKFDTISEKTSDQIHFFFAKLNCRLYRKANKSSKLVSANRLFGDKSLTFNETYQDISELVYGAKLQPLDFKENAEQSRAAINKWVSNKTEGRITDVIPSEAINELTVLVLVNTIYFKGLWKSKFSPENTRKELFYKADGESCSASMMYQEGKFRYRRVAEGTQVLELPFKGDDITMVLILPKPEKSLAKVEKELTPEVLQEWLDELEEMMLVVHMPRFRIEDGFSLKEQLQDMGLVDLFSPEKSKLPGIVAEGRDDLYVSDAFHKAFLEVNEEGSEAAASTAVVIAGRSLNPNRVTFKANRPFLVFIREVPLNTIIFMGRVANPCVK

| Interaction with thrombin [1] | Interaction with antithrombin [2] | Substance |
| --- | --- | --- |
| interaction | interaction | Heparin [GB1] |
| lack of interaction | lack of interaction | N-desulfated Heparin [GB2] |
